Measurements from patent US8362236B2, “Macrocyclic compound” (Chugai Seiyaku Kabushiki Kaisha, priority 2007, dated 2013).

Assays:
Human HSP90 alpha = biological target: T1, Human HSP90 alpha (Homo sapiens, UniProt P07900); assay: Assay for the activity of inhibiting HSP90 enzyme (ATPase, malachite green); assay type: biochemical; details: purified human HSP90 alpha, 1 mM ATP added, 37° C. for two hours, OD655; read-out: Enzyme-inhibiting activity (IC50, μM) Human HSP90α
T1 construct: His tag (inferred from purification on a HisPrep FF column); made in house; host or cells: E. coli BL21 codon plus (Stratagene)
Protocol: Introduction of pETHuHSP90a into E. coli (BL21 codon plus; Stratagene) was followed by O/N incubation in the presence of 0.1 mM IPTG, and the collected E. coli cells were disrupted by ultrasonication in a Lysis buffer (50 mM Tris-HCl (pH8.0), 10 mM MgCl2, 0.1% Triton X-100, Protease inhibitor cocktail tablets (Roche Diagnostics)). The cell lysate solution was centrifuged (10,000 rpm×30 minutes), and the supernatant obtained after centrifugation was used as a crude extract. The crude extract was fractionated using HisPrep FF column and HiTrap Q column (Amersham) to prepare a purified enzyme solution.
An enzyme solution for assays was prepared by dilution of the purified enzyme solution using an assay buffer (50 mM Tris HCl pH7.6, 20 mM KCl, 5 mM MgCl2).
10 μL each of various concentrations of the test substances (10% DMSO solution) was added to each well, and for the positive control wells, 10 μL of 10% DMSO was added. 10 μL of 10% DMSO was also added to the negative control well.
10 μL of 1 mM ATP was added to all of the wells, and the reaction was carried out at 37° C. for two hours.

HCT116 cells = assay: Measurement of cell growth inhibition (Cell Counting Kit-8, four days); details: Homo sapiens, HCT-116, 96 h, read-out: Cell growth-inhibiting activity (IC50, μM) Colon cancer HCT116, HCT116 colon cancer cell line, four days culture;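 also: cells exposed to a range of test concentrations at 37 °C in 5% CO2 for four days, then growth read as absorbance with Cell Counting Kit-8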
Protocol: Cells were maintained under conditions recommended by the provider of each cell line. Cells suspended in a medium were added to solutions containing various concentrations of the test substance, and the cells were cultured at 37° C. in a 5% CO2 incubator. Four days later, Cell Counting Kit-8 was added, and absorbance measurements were taken following the protocol included in the kit.

Row | IC50 (Human HSP90 alpha) | IC50 (HCT116 cells) | SMILES
1 | 2.3 µM | 0.5 µM | Cc1cc(C)c2cc1C(=O)NCCC(N)C(=O)NCCSc1cc-2nc(N)n1 (centres unmarked) [Compound 73, 4,12-diamino-18,20-dimethyl-7-thia-3,5,10,15-tetraazatricyclo[15.3.1.1^2,6]docosa-1(20),2(22),3,5,17(21),18-hexaene-11,16-dione]
2 | 1.6 µM | 0.4 µM | Cc1cc(C)c2cc1C(=O)NCCCCCNC(=O)C(C)CSc1cc-2nc(N)n1 (centres unmarked) [Compound 7, 4-amino-9,20,22-trimethyl-7-thia-3,5,11,17-tetraazatricyclo[17.3.1.1^2,6]tetracosa-1(22),2(24),3,5,19(23),20-hexaene-10,18-dione]
3 | 2.8 µM | 9 µM | CNC(=O)[C@@H]1CCNC(=O)CCSc2cc(nc(N)n2)-c2cc(c(C)cc2C)C(=O)N1 [Compound 65, (S)-4-amino-18,20-dimethyl-10,16-dioxo-7-thia-3,5,11,15-tetraazatricyclo[15.3.1.1^2,6]docosa-1(20),2(22),3,5,17(21),18-hexaene-14-carboxylic acid methylamide]
4 | 1.3 µM | 0.72 µM | Cc1cc(C)c2cc1C(=O)NCCC(=O)NCCSc1cc-2nc(N)n1 [Compound 12, 4-amino-17,19-dimethyl-7-thia-3,5,10,14-tetraazatricyclo[14.3.1.1^2,6]henicosa-1(19),2(21),3,5,16(20),17-hexaene-11,15-dione]
5 | 1.7 µM | 2.4 µM | Nc1nc2cc(n1)-c1cc(c(Cl)cc1Cl)OCCCCCOc1cccc(c1)S2 [Compound 22, 4-amino-21,23-dichloro-13,19-dioxa-7-thia-3,5-diazatricyclo[18.3.1.1^2,6.1^8,12]hexacosa-1(24),2,4,6(24),8,10,12(26),20,22-nonaene]
6 | 0.8 µM | 1.3 µM | Cc1cc(C)c2cc1C(=O)NC[C@@H](O)CNC(=O)CCSc1cc-2nc(N)n1 [Compound 31, (S)-4-amino-13-hydroxy-18,20-dimethyl-7-thia-3,5,11,15-tetraazatricyclo[15.3.1.1^2,6]docosa-1(20),2(22),3,5,17(21),18-hexaene-10,16-dione]
7 | 1.1 µM | 1.4 µM | Nc1nc2cc(n1)-c1cc(c(Cl)cc1Cl)OCCOCCOc1cccc(c1)S2 [Compound 23, 21,23-dichloro-13,16,19-trioxa-7-thia-3,5-diazatricyclo[18.3.1.1^2,6.1^8,12]hexacosa-1(23),2(25),3,5,8(26),9,11,20(24),21-nonaen-4-ylamine]
8 | 1.7 µM | 0.3 µM | Cc1cc(C)c2cc1C(=O)NCCOCCNC(=O)CCSc1cc-2nc(N)n1 [Compound 29, 4-amino-20,22-dimethyl-14-oxa-7-thia-3,5,11,17-tetraazatricyclo[17.3.1.1^2,6]tetracosa-1(22),2(24),3,5,19(23),20-hexaene-10,18-dione]
9 | 2.5 µM | 0.2 µM | COCCN1CCSc2cc(nc(N)n2)-c2cc(c(C)cc2C)C(=O)NCCCC1=O [Compound 80, 4-amino-10-(2-methoxyethyl)-18,20-dimethyl-7-thia-3,5,10,15-tetraazatricyclo[15.3.1.1^2,6]docosa-1(20),2(22),3,5,17(21),18-hexaene-11,16-dione]
10 | 0.5 µM | 0.4 µM | Cc1cc(C)c2cc1C(=O)NCCCN(C)C(=O)CCSc1cc-2nc(N)n1 [Compound 32, 4-amino-11,18,20-trimethyl-7-thia-3,5,11,15-tetraazatricyclo[15.3.1.1^2,6]docosa-1(20),2,4,6(22),17(21),18-hexaene-10,16-dione]
11 | 1.9 µM | > 10 µM | COc1cc(C)c2cc1C(=O)NCCCC(=O)NCCSc1cc-2nc(N)n1 [Compound 9, 4-amino-18-methoxy-20-methyl-7-thia-3,5,10,15-tetraazatricyclo[15.3.1.1^2,6]docosa-1(20),2(22),3,5,17(21),18-hexaene-11,16-dione]
12 | 0.8 µM | 0.15 µM | Cc1cc(C)c2cc1C(=O)NCCCCCC(=O)NCCSc1cc-2nc(N)n1 [Compound 14, 4-amino-20,22-dimethyl-7-thia-3,5,10,17-tetraazatricyclo[17.3.1.1^2,6]tetracosa-1(22),2(24),3,5,19(23),20-hexaene-11,18-dione]
13 | 2 µM | 0.21 µM | Nc1nc2cc(n1)-c1cc(c(Cl)cc1Cl)C(=O)NCCCNC(=O)CCS2 [Compound 8, 4-amino-18,20-dichloro-7-thia-3,5,11,15-tetraazatricyclo[15.3.1.1^2,6]docosa-1(20),2(22),3,5,17(21),18-hexaene-10,16-dione]
14 | 0.7 µM | 1.8 µM | Cc1cc(C)c2cc1C(=O)NCCCN(CCN1CCOCC1)C(=O)CCSc1cc-2nc(N)n1 [Compound 36, 4-amino-18,20-dimethyl-11-(2-morpholin-4-ylethyl)-7-thia-3,5,11,15-tetraazatricyclo[15.3.1.1^2,6]docosa-1(20),2,4,6(22),17(21),18-hexaene-10,16-dione]
15 | 3 µM | 1.1 µM | Cc1cc(C)c2cc1C(=O)NCCCC(=O)N(CCN1CCOCC1)CCSc1cc-2nc(N)n1 [Compound 81, 4-amino-10-(2-morpholin-4-ylethyl)-18,20-dimethyl-7-thia-3,5,10,15-tetraazatricyclo[15.3.1.1^2,6]docosa-1(20),2(22),3,5,17(21),18-hexaene-11,16-dione]
16 | 1.2 µM | 4.4 µM | Cc1cc(C)c2cc1C(=O)N(C)CCCC(=O)NCCSc1cc-2nc(N)n1 [Compound 13, 4-amino-15,18,20-trimethyl-7-thia-3,5,10,15-tetraazatricyclo[15.3.1.1^2,6]docosa-1(20),2(22),3,5,17(21),18-hexaene-11,16-dione]
17 | 1.4 µM | 0.2 µM | Nc1nc2cc(n1)-c1cc(c(Cl)cc1Cl)C(=O)NCCCCCC(=O)NCCS2 [Compound 28, 4-amino-20,22-dichloro-7-thia-3,5,10,17-tetraazatricyclo[17.3.1.1^2,6]tetracosa-1(22),2(24),3,5,19(23),20-hexaene-11,18-dione]
18 | 2.8 µM | 0.4 µM | Cc1cc(C)c2cc1C1=N[C@@H](CCNC(=O)CCSc3cc-2nc(N)n3)CO1 [Compound 83, (S)-4-amino-19,21-dimethyl-10-oxo-7-thia-16-oxa-3,5,11,24-tetraazatetracyclo[16.3.1.1^2,6.1^7,10]tetracosa-1(22),2(23),3,5,17(24),19,21-heptaen-10-one]
19 | 2.5 µM | 0.2 µM | Cc1cc(C)c2cc1C(=O)NCCCC(=O)N(C)CCSc1cc-2nc(N)n1 [Compound 82, 4-amino-10,18,20-trimethyl-7-thia-3,5,10,15-tetraazatricyclo[15.3.1.1^2,6]docosa-1(20),2(22),3,5,17(21),18-hexaene-11,16-dione]
20 | 1 µM | 0.5 µM | Cc1cc(C)c2cc1C(=O)NCCCCNC(=O)CCCSc1cc-2nc(N)n1 [Compound 5, 4-amino-20,22-dimethyl-7-thia-3,5,12,17-tetraazatricyclo[17.3.1.1^2,6]tetracosa-1(22),2(24),3,5,19(23),20-hexane-11,18-dione]
21 | 5.5 µM | > 5 µM | Cc1cc(C)c2cc1C(=O)N[C@H](C(=O)N(C)C)CCNC(=O)CCSc1cc-2nc(N)n1 [Compound 67, (S)-4-amino-18,20-dimethyl-10,16-dioxo-7-thia-3,5,11,15-tetraazatricyclo[15.3.1.1^2,6]docosa-1(20),2(22),3,5,17(21),18-hexaene-14-carboxylic acid dimethylamide]
22 | 1.7 µM | 7.1 µM | Cc1cc(C)c2cc1C(=O)N[C@H](CO)CCNC(=O)CCSc1cc-2nc(N)n1 [Compound 68, (S)-4-amino-14-hydroxymethyl-18,20-dimethyl-7-thia-3,5,11,15-tetraazatricyclo[15.3.1.1^2,6]docosa-1(20),2(22),3,5,17(21),18-hexaene-10,16-dione]
23 | 2.8 µM | 1.1 µM | Cc1cc(C)c2cc1C(=O)NCCCN(CCO)C(=O)CCSc1cc-2nc(N)n1 [Compound 34, 4-amino-11-(2-hydroxyethyl)-18,20-dimethyl-7-thia-3,5,11,15-tetraazatricyclo[15.3.1.1^2,6]docosa-1(20),2,4,6(22),17(21),18-hexaene-10,16-dione]
24 | 2.1 µM | 1.4 µM | Nc1nc2nc(n1)-c1cc(c(Cl)cc1Cl)OCCOCCOc1cccc(c1)S2 [Compound 27, 21,23-dichloro-13,16,19-trioxa-7-thia-3,5,25-triazatricyclo[18.3.1.1^2,6.1^8,12]hexacosa-1(23),2(25),3,5,8(25),9,11,20(24),21-nonaen-4-ylamine]
25 | 2.8 µM | 0.5 µM | Cc1cc(C)c2cc1C(=O)NCCC(N(C)C)C(=O)NCCSc1cc-2nc(N)n1 (centres unmarked) [Compound 78, 4-amino-12-dimethylamino-18,20-dimethyl-7-thia-3,5,10,15-tetraazatricyclo[15.3.1.1^2,6]docosa-1(20),2(22),3,5,17(21),18-hexaene-11,16-dione]
